Experimental findings from patent US9498438B2 (The University of Liverpool, priority 2011, dated 2016) are described below.

Format in all cases: cell-based
A short description of data set [1]: ATP cell viability assay (CellTiter-Glo) cytotoxicity. Particulars: human, THP-1 (monocyte) cells.
Experimental: The same procedure was followed for each individual excipient (23 samples) with concentrations range of 1 μM to 1 M.
Prior to starting viability assays, all reagents were made fresh and in accordance to manufacturer's instructions and allowed to equilibrate to room temperature immediately before use. After 24 hours incubation, 96 well plates were removed from the incubator and the plate and its contents allowed too equilibrate to room temperature for approximately 30 minutes. After 30 minutes, 80 μl of media was aspirated from each individual well and 20 μl CellTiter-Glo® Reagent (Promega, UK) was added to the remaining media and cells. The contents were then mixed for 2 minutes on an orbital shaker to induce cell lysis. The plate was then further incubated at room temperature for 10 minutes to stabilise luminescent signal. Luminescence was then measured using a Tecan Genios plate reader (Tecan; Austria).
In a further data set the test system is HIVIIIB in MT4 cells. Briefly: Inhibition of cultured HIV-IIIB in MT4 cells (MTT assay). Particulars: Human immunodeficiency virus 1, 120 h, 70% loaded, 5 days, read-out: IC50 (nM), Table 11. On the procedure:
HIVIIIB and the human T-cell line, MT4, were supplied by the National Institute for Biological Standards and Control (NIBSC), the Centre for AIDS Reagents (CFAR: Hertfordshire, Uk). MT4 cells were grown and routinely maintained in RPMI-1640 (Sigma; Dorest, Uk) supplemented with 10% fetal bovine serum (FBS; Bio-Whittaker, Berkshire, Uk) at 37° C. and 5% CO2 and sub-cultured every 3 days. Cell counts and viability was determined by Trypan Blue exclusion using a disposable plastic haemocytometer (Labtech International Ltd, UK). HIVIIIB was propagated by passage through MT4 cells in RPMI-1640 and 10% FBS for 12 days and a subsequent multiplicity of infection (MOI) was determined by MTT assay.
MT4 cells were dispensed into 50 ml falcon tubes and centrifuged at 2000 rpm and 4° C. for 5 minutes. The supernatant was aspirated and the resulting pellet resuspended to a cell density of 1×10^5/ml in RPMI 1640 supplemented with 10% FBS and 1 ml of viral isolate (M.O.I 0.001). After further centrifugation for 5 minutes at 2000 rpm, the MT4/HIVIIIB pellet was incubated at 37° C. and 5% CO2 for 2 hours. […]
Following incubation for 5 days of MT4/HIVIIIB with nano formulated EFV at 37° C. and 5% CO2. […] Absorbance was read at 570 nm on a plate reader (Tecan Magellan, Austria).

A short description of data set [2]: ATP cell viability assay (CellTiter-Glo) cytotoxicity. Particulars: human, A-THP-1 (PMA-activated THP-1, macrophage like) cells.
Experiment in data set [3]: as above
The settings on record: human. The text has this: HepG2 (hepatic) and Caco-2 (intestinal) cells were purchased from American Type Tissue Culture (ATCC; USA) and maintained in Dulbecco's modified eagle's medium (DMEM; Sigma; Dorest, Uk) supplemented with 10% fetal bovine serum (FBS; Bio-Whittaker, Berkshire, Uk) for HepG2 and 15% FBS for Caco-2. CEM (lymphocyte) and THP-1 (monocyte) cells were purchased from European Collection of Cell Culture (ECACC; Porton Down, Uk) and grown in RPMI-1640 (Sigma; Dorest, Uk) supplemented with 10% FBS. All cell lines were incubated at 37° C. and 5% CO2 and for adherent cells (HepG2 and Caco-2) were routinely sub-cultured every 4 days when 95% confluent. Suspension cells (CEM and THP-1) were routinely sub-cultured when a density of 1×10^6 cells/ml was achieved. Cell count and viability was determined by Trypan Blue exclusion assay.
HepG2, Caco-2, THP-1, CEM and A-THP-1 cells were separately seeded at a density of 2.5×10^4/100 μl in their appropriate media into each well of a 96 well plate (Nunclon™, Denmark) and incubated for 24 hours at 37° C. and 5% CO2. […]
Prior to starting viability assays, all reagents were made fresh and in accordance to manufacturer's instructions and allowed to equilibrate to room temperature immediately before use. […] Luminescence was then measured using a Tecan Genios plate reader (Tecan; Austria).

Regarding `O=C1Nc2ccc(Cl)cc2[C@@](C#CC2CC2)(C(F)(F)F)O1` [Aqueous solution, efavirenz], the IC50 at 24 h in data set [1] stood at 29 µM; in data set [2] it was 29 µM; in data set [3] (CEM (lymphocyte) cells) it was 40 µM; in data set [3] (HepG2 (hepatic) cells), 33 µM. Besides, the IC50 in the data set with HIVIIIB in MT4 cells came to 71 nM.
